Measurements taken from ChEMBL document CHEMBL1932963, “Mitochondrial targeting of a cationic amphiphilic polyproline helix” (Bioorg Med Chem Lett, 2012).

How the values were obtained:
[1] = system: HeLa; experiment: Cellular uptake in human HeLa cells after 4 hrs by flow cytometry; assay type: ADME, cell-based
[2] = system: HeLa; experiment: Cellular uptake in human HeLa cells at 5 uM after 4 hrs by flow cytometry relative control; assay type: ADME, cell-based
[3] = Cellular uptake in human HeLa cell lysosomes using LysoTracker dye at 1 uM after 4 hrs; assay type: ADME, cell-based, Lysosome
[4] = Cellular uptake in human HeLa cell mitochondria using mitotracker dye at 1 uM after 4 hrs; assay type: ADME
[5] = Cellular uptake in human HeLa cell mitochondria using mitotracker dye at 5 uM after 4 hrs; assay type: ADME
[6] = Cellular uptake in human HeLa cell mitochondria using mitotracker dye at 5 uM after 30 mins; assay type: ADME; conditions: 0.5 h
[7] = Cellular uptake in human HeLa cell mitochondria using mitotracker dye at 5 uM after 1 hr by confocal microscopy in presence of FCCP; assay type: ADME
[8] = Cellular uptake in human HeLa cell lysosomes using LysoTracker dye at 5 uM after 1 hr by confocal microscopy in presence of FCCP; assay type: ADME, cell-based, Lysosome
[9] = Cellular uptake in human HeLa cell cytosol at 5 uM after 1 hr by confocal microscopy in presence of FCCP; assay type: ADME, cell-based
[10] = system: HeLa; experiment: Cellular uptake in human HeLa cells assessed as increase in cellular fluorescence at 5 uM after 4 hrs by flow cytometry relative to control; assay type: ADME, cell-based
[11] = system: HeLa; experiment: Cellular uptake in human HeLa cells up to 2.5 uM after 4 hrs by flow cytometry; assay type: ADME, cell-based

| Compound | Drug uptake [1] | Ratio [2] | Drug uptake [3] | Drug uptake [4] | Drug uptake [5] | Drug uptake [6] | Drug uptake [7] | Drug uptake [8] | Drug uptake [9] | Ratio [10] | Drug uptake [11] |
| --- | --- | --- | --- | --- | --- | --- | --- | --- | --- | --- | --- |
| CC(C)CO[C@H]1C[C@H](C(=O)N2C[C@@H](OCCCNC(=N)N)C[C@@H]2C(=O)N2C[C@@H](OCCCNC(=N)N)C[C@@H]2C(=O)N2C[C@@H](OCC(C)C)C[C@@H]2C(=O)N2C[C@@H](OCCCNC(=N)N)C[C@@H]2C(=O)N2C[C@@H](OCCCNC(=N)N)C[C@@H]2C(=O)N2C[C@@H](OCC(C)C)C[C@@H]2C(N)=O)N(C[C@H]2C[C@H](OCCCNC(=N)N)CN2C(=O)[C@H]2C[C@H](OCCCNC(=N)N)CN2C(=O)[C@H]2C[C@H](OCC(C)C)CN2C(=O)[C@H]2C[C@H](OCCCNC(=N)N)CN2C(=O)[C@H]2C[C@H](OCCCNC(=N)N)CN2C(=O)[C@H]2C[C@H](OCC(C)C)CN2C(=O)CNC(=O)c2cccc(-c3c4ccc(=O)cc-4oc4cc(O)ccc34)c2C(=O)O)C1 | Dose-dependent effect | 7.5 | Active | Active | Active | Active | Not Active | Active | Active | 14 | – |
| N=C(N)NCCC[C@H](NC(=O)[C@H](CCCNC(=N)N)NC(=O)[C@H](CCCNC(=N)N)NC(=O)[C@H](CCC(N)=O)NC(=O)[C@H](CCCNC(=N)N)NC(=O)[C@H](CCCNC(=N)N)NC(=O)[C@H](CCCCN)NC(=O)[C@H](CCCCN)NC(=O)[C@H](CCCNC(=N)N)NC(=O)CNC(=O)[C@H](Cc1ccc(O)cc1)NC(=O)c1ccccc1-c1c2ccc(=O)cc-2oc2cc(O)ccc12)C(N)=O | – | – | – | – | – | – | – | – | – | – | Not Active |
